≈ marks a conversion by molar mass, not a printed value.
How the values were obtained:
Antrodia vaillantii = experiment: 6-well plate assay, minimal inhibitory concentration; type: cell-based; settings: Fibroporia vaillantii, 168 h; 6-well agar plate; lowest concentration with no growth after seven days; read-out: Effectiveness at Inhibiting Wood-Rotting Fungi, BR3 (minimal inhibitory concentration)
Experimental: (§1) The minimal inhibitory concentration of fungicides against eight fungi was determined in 6-well microtiter plates. Minimal inhibitory concentration is defined as the lowest concentration at which no fungus growth is evident after seven days. A group of eight fungi were used in a screen to identify potential active ingredients to preserve wood. The eight fungi, their classification, and the growth media used to culture them are listed below:
(§2) Growth media were purchased from Difco (from Beckton Dickinson and Co., Sparks, Md.). The growth media were added to water to 2% w/v and autoclaved at 121° C. for 30 min. Autoclaved media were allowed to cool down to ˜50° C. Test chemicals were dissolved in DMSO (dimethyl sulfoxide) individually at 10 mg/mL to generate stock solutions. An appropriate amount of a stock solution was then added to the appropriate growth medium at 50° C. to make up the test media containing various concentrations of individual test chemicals. 10 mL of the medium was added to each well of a 6-well plate and allowed to solidify at room temperature. For each plate, the first well had no chemical, and the remaining five wells contained a particular test chemical at five different concentrations. Eight such plates were prepared for each chemical, using the eight media listed above for the eight test organisms.
(§3) After the media solidified and cooled, a plug (˜2 mm×2 mm) of agar growth medium with fresh grown mycelium from the appropriate fungal culture was used to inoculate each well. The plate was placed in an incubator, and the growth of the fungus monitored. After 4 to 7 days, the growth was scored manually.

Chaetomium globosum = experiment: as above; type: cell-based; settings: Chaetomium globosum, 168 h; 6-well agar plate; lowest concentration with no growth after seven days; read-out: Effectiveness at Inhibiting Wood-Rotting Fungi, SR1 (minimal inhibitory concentration)
Experimental: as §1, §2, §3

Gloeophyllum trabeum = experiment: as above; type: cell-based; settings: Gloeophyllum trabeum, 168 h; 6-well agar plate; lowest concentration with no growth after seven days; read-out: Effectiveness at Inhibiting Wood-Rotting Fungi, BR2 (minimal inhibitory concentration)
Experimental: as §1, §2, §3

Irpex lacteus [1] = experiment: as above; type: cell-based; settings: Irpex lacteus, 168 h; 6-well agar plate; lowest concentration with no growth after seven days; read-out: Effectiveness at Inhibiting Wood-Rotting Fungi, WR2 (minimal inhibitory concentration)
Experimental: as §1, §2, §3

[2] = tested on: Phanerochaete chrysosporium; experiment: as above; type: cell-based; settings: Phanerodontia chrysosporium, 168 h; 6-well agar plate; lowest concentration with no growth after seven days; read-out: Effectiveness at Inhibiting Wood-Rotting Fungi, WR3 (minimal inhibitory concentration)
Experimental: as §1, §2, §3

Postia placenta [3] = experiment: as above; type: cell-based; settings: Rhodonia placenta, 168 h; 6-well agar plate; lowest concentration with no growth after seven days; read-out: Effectiveness at Inhibiting Wood-Rotting Fungi, BR1 (minimal inhibitory concentration)
Experimental: as §1, §2, §3

Trametes versicolor = experiment: as above; type: cell-based; settings: Trametes versicolor, 168 h; 6-well agar plate; lowest concentration with no growth after seven days; read-out: Effectiveness at Inhibiting Wood-Rotting Fungi, WR1 (minimal inhibitory concentration)
Experimental: as §1, §2, §3

Postia placenta [4] = experiment: Soil block test (AWPA E10-01, modified), SYP blocks; settings: for Average weight loss: 3 months
Experimental: (§4) For the soil block tests, the protocol listed as AWPA (American Wood Preservers' Association) standard E10-01 was used, with some modifications that are noted.
(§5) For pressure treatment, wood blocks (¾ inch cubes) were made from Southern yellow pine (SYP) or birch dried at about 40° C. to constant weight, and weighed before pressure treatment. In a typical experiment, blocks were submerged in an appropriate treatment solution in an autoclave. A vacuum of 10 to 15 inch Hg (380 to 510 torr) was applied for 30 min, followed by a pressure of 150 psi (1.034 MPa) for 1 hr. The treatment solution was then removed and a vacuum of 10 to 15 inch Hg (380 to 510 torr) was applied again to the blocks for 15 min. Excess treatment solution on the surface was allowed to evaporate (30 min in a laboratory fume hood) before the blocks were either weighed or stored in a sealed plastic bag and weighed at a later time.
(§6) For the soil block test, wood blocks were conditioned in a vented incubator at 40° C. until they reached a constant weight (16 to 18 hrs). Blocks were then autoclaved at 100° C. for 30 min under dry cycle. Soil samples with a water holding capacity of 40% were used for these tests. 60 mL of water and 92-100 g of soil were added into a 228 mL French square bottle, and autoclaved at 121° C. for 30 min. A feeder strip, ⅛″×1⅛″×1⅜″ (˜0.31 cm×2.86 cm×3.49 cm), birch for birch blocks and SYP for SYP blocks, was placed on the top of the soil. A testing block was placed on top of the feeder strip and the bottle contents inoculated with an agar strip (˜3 mm×30 mm) containing freshly grown fungus (listed in the results). For brown rot fungi (Postia placenta), SYP blocks and feeder strips were used. For white rot (Irpex lacteus), birch blocks and feeder strips were used. The bottles were loosely capped and allowed to incubate at ˜75% humidity and 25° C. for 3 months. Then the blocks were removed from the bottles and dried at 40° C. to constant weight in a vented incubator (16-18 hr). The weight of each block was determined and the percent weight loss was calculated.
(§7) Blocks were allowed to age for a week in the fume hood after treatment. Half of the blocks were subjected to leaching with water for an additional week before undergoing the soil block test. For leaching, blocks were placed in a beaker and 30 mL of water per block were added. Blocks were allowed to incubate at room temperature under constant stirring, with daily change of water for one week.
SYP blocks were pressure-treated with this solution as above (Example 2). After treatment, the blocks were divided into groups and allowed to age in the hood for either two days or 14 days. The blocks were then placed in a beaker and submerged under water (50 mL water per block), under constant stirring for two weeks. […]

Irpex lacteus [5] = experiment: Soil block test (AWPA E10-01, modified), birch blocks; settings: for Average weight loss: 3 months
Experimental: as §4, §5, §6, §7

With `C[Si](Cn1cncn1)(c1ccc(F)cc1)c1ccc(F)cc1` [Flusilazole] the MIC (Antrodia vaillantii) was under 1 µg/mL, the MIC (Chaetomium globosum) was under 1 µg/mL and the MIC (Gloeophyllum trabeum) was 1 to 100 µg/mL (≈ 3.17 to 317 µM). For the same compound, the MIC (Irpex lacteus [1]) was 1 to 100 µg/mL (≈ 3.17 to 317 µM), the MIC [2] was 1 to 100 µg/mL (≈ 3.17 to 317 µM) and the MIC (Postia placenta [3]) was under 1 µg/mL. It also gave an MIC (Trametes versicolor) of under 1 µg/mL, an Average weight loss (Postia placenta [4]; SYP blocks pressure-treated with 50 ppm solution in 5% acetic acid) of 29% and an Average weight loss (Postia placenta [4]; SYP blocks pressure-treated with 100 ppm solution in 5% acetic acid) of 19%. For the same compound, the Average weight loss (Postia placenta [4]; SYP blocks pressure-treated with 200 ppm solution in 5% acetic acid) was 3.3%, the “Protection against decay (in words)” value (Postia placenta [4]; SYP blocks, 200 ppm flusilazole solution) was “protected against decay” and the Average weight loss (Irpex lacteus [5]; birch blocks pressure-treated with 50 ppm solution in 5% acetic acid) was 19.5%. For the same compound, the Average weight loss (Irpex lacteus [5]; birch blocks pressure-treated with 100 ppm solution in 5% acetic acid) was 21.7%, the Average weight loss (Irpex lacteus [5]; birch blocks pressure-treated with 200 ppm solution in 5% acetic acid) was 11% and the “Protection against decay (in words)” value (Irpex lacteus [5]; birch blocks, 200 ppm flusilazole solution) was “significantly protected from decay”.
